Measurements from US20240262865A1, “Calcium independent phosphatidylserine binding compounds for detecting phosphatidylserine positive cells” (priority 2023, published 2024).
BODIPY = fluorogenic core (…diaza-s-indacene), attached to Trp by a spacer-free C—C linkage

B1: Annexin V: recombinant protein, PS binding agent binding PS in the presence of calcium; used as Alexa 647 conjugate (protein, UniProt P08758 2-320, looked up)
Annexin A5: AQVLRGTVTDFPGFDERADAETLRKAMKGLGTDEESILTLLTSRSNAQRQEISAAFKTLFGRDLLDDLKSELTGKFEKLIVALMKPSRLYDAYELKHALKGAGTNEKVLTEIIASRTPEELRAIKQVYEEEYGSSLEDDVVGDTSGYYQRMLVVLLQANRDPDAGIDEAQVEQDAQALFQAGELKWGTDEEKFITIFGTRSVSHLRKVFDKYMTISGFQIEETIDRETSGNLEQLLLAVVKSIRSIPAYLAETLYYAMKGAGTDDHTLIRVMVSRSEIDLFNIRKEFRKNFATSLYSMIKGDTSGDYKKALLLLCGEDD
modifications: Alexa 647 label
notes: used as Alexa 647 conjugate

How the values were obtained:
[1] = system: PS positive cells; assay: Flow cytometry staining of PS positive cells on one day old mouse thymocytes, side by side with Apotracker Green and Annexin V; format: cell-based; settings: one day old C57BL/6 mouse thymocytes, Atto 647 Item-2 28 pM/test and Apotracker 400 nM/test in PBS without Ca2+, Alexa 647 Annexin V in Annexin V binding buffer, Sytox Blue
Excerpt: Whether an agent is considered to be a PS binding agent or to have a PS binding activity, it can be determined by using a flow cytometer to detect the PS binding activity of said agent which has been illustrated in the art. Thereby, PS positive cells can be used in such an assay, wherein the number of stained cells may be compared to the reference agent Apotracker Green and/or Annexin V, in accordance with the present invention.
To validate the Atto 647 Item-2 by flow cytometry, one day old C57BLU6 mouse thymocytes were side by side incubated with 28 pM/test of Atto 647 Item-2 and Sytox Blue or 400 nM/test of Apotracker and Sytox Blue in PBS without Ca^2+ or 5 μLtest of Alexa 647 Annexin V and of Sytox Blue in Annexin V binding buffer for 15 minutes at room temperature, then the cells were analyzed with NovoCyte Quanteon flow cytometry without wash. Debris were gated out based on cell density plot in a lower level of forward scatter. The two-parameter density plots show Atto 647 Item-2 or Apotracker Green or Annexin V versus Sytox Blue. Sytox Blue is an impermeant blue-emitting nucleic acid indicator which is used for indicating the dead cells. Sytox Blue was used at 20 nM/test in herein.
The cells were analyzed with NovoCyte Quanteon flow cytometry without wash.

[2] = system: PS positive cells; assay: Flow cytometry of Atto 647 Item-2 stained U937 cells before and after 2% PFA fixation; format: cell-based; settings: U937 cells in PBS without Ca2+
Description: In order to validate if the PS positive cells stained with Atto 647 Item-2 are fixable, the fresh and 2 days IL-4 stimulated U937 cells were simultaneously stained with 28 pM/test of Atto 647 Item-2 and 20 nM of Sytox Blue, then the cells were split into two sets. One set of cells were analyzed with flow cytometry right after staining without wash, the other set of cells were fixed by adding 16% of Paraformaldehyde (PFA) to the final concentration at 2% PFA for 10 minutes at room temperature followed by centrifugation at 350 g for 5 minutes. Then the cells were resuspended in PBS without Ca^2+. The fresh cells and stimulated cells with or without fixation were analyzed on day 0 and day 2 respectively. The cells were analyzed with NovoCyte Quanteon flow cytometry without wash.

Molecule | staining pattern and frequencies of PS positive dying cells and dead cells [1] | calcium dependence of PS binding [2]
Apotracker Green: cyclic peptide of SEQ ID NO: 1 [RKKWFW(BODIPY)G]; calcium-independent PS binding agent, commercial name Apotracker Green (cyclo(RKKWFW(BODIPY)G)) [reference compound] | comparable to each other | 
Item-2: PS binding compound derivative comprising SEQ ID NO: 2 [RKKWFWC], head-to-tail cyclized (head-to-tail cyclized) |  | Ca^2+ independent
B1 | comparable to each other | 
